Experimental data as given in patent US10975077B2 (Novira Therapeutics, Inc., priority 2016, dated 2021).

tested on: HBV (encapsidated HBV DNA, HepG2.2.15 cells); assay: HBV replication inhibition assay, BDNA assay in HepG2.2.15 cells; format: cell-based; conditions: Hepatitis B virus, HepG2.2.15, Activity in BDNA-assay
Procedure, shortened: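 HepG2.2.15 cells (stably integrated HBV, 40,000/well) treated with serially diluted compound in 0.5% DMSO for 6 days, medium and compound refreshed at day 3. DNase-treated supernatant lysed with proteinase K; encapsidated HBV DNA quantified by bDNA, percent inhibition versus DMSO controls, EC50 by nonlinear fit.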

Row | Structure (SMILES) | EC50 [nM]
1 | COC(=O)c1cn2nc3c(c2c(=O)n1C)CN(C(=O)Nc1ccc(F)c(Cl)c1)CC3 [Compound 040, methyl 2-((3-chloro-4-fluorophenyl)carbamoyl)-9-methyl-10-oxo-1,2,3,4,9,10-hexahydropyrido[4′,3′:3,4]pyrazolo[1,5-a]pyrazine-8-carboxylate] | 100 to 500
2 | Cn1c(CO)cn2nc3c(c2c1=O)CN(C(=O)Nc1ccc(F)c(Cl)c1)CC3 [Compound 041, N-(3-chloro-4-fluorophenyl)-8-(hydroxymethyl)-9-methyl-10-oxo-3,4,9,10-tetrahydropyrido[4′,3′:3,4]pyrazolo[1,5-a]pyrazine-2 (1H)-carboxamide] | 1 to 100
3 | Cn1c(C(=O)O)cn2nc3c(c2c1=O)CN(C(=O)Nc1ccc(F)c(Cl)c1)CC3 [Compound 042, 2-((3-chloro-4-fluorophenyl)carbamoyl)-9-methyl-10-oxo-1,2,3,4,9,10-hexahydropyrido[4′,3′:3,4]pyrazolo[1,5-a]pyrazine-8-carboxylic acid] | > 1000
4 | COC(=O)C1Cn2nc3c(c2C(=O)N1C)CN(C(=O)Nc1ccc(F)c(Cl)c1)CC3 (stereo not shown) [Compound 043, methyl 2-((3-chloro-4-fluorophenyl)carbamoyl)-9-methyl-10-oxo-1,2,3,4,7,8,9,10-octahydropyrido[4′,3′:3,4]pyrazolo[1,5-a]pyrazine-8-carboxylate] | 100 to 500
5 | CN1C(=O)c2c3c(nn2CC1CO)CCN(C(=O)Nc1ccc(F)c(Cl)c1)C3 (stereo not shown) [Compound 044, N-(3-chloro-4-fluorophenyl)-8-(hydroxymethyl)-9-methyl-10-oxo-3,4,7,8,9,10-hexahydropyrido[4′,3′:3,4]pyrazolo[1,5-a]pyrazine-2 (1H)-carboxamide] | 1 to 100
6 | CN1CCn2nc3c(c2C1=O)CN(C(=O)Nc1ccc(F)c(Cl)c1)CC3 [Compound 045, N-(3-chloro-4-fluorophenyl)-9-methyl-10-oxo-3,4,7,8,9,10-hexahydropyrido[4′,3′:3,4]pyrazolo [1,5-a]pyrazine-2 (1H)-carboxamide] | 1 to 100
7 | CN1CCCn2nc3c(c2C1)CN(C(=O)Nc1ccc(F)c(Cl)c1)CC3 [Compound 046, N-(3-chloro-4-fluorophenyl)-10-methyl-1,3,4,7,8,9,10,11-octahydro-2H-pyrido[4′,3′:3,4]pyrazolo[1,5-a][1,4]diazepine-2-carboxamide] | > 1000
8 | CN1CC(C(O)CC2CC2)Cn2nc3c(c2C1=O)CN(C(=O)Nc1ccc(F)c(Cl)c1)CC3 (stereo not shown) [Compound 047, N-(3-chloro-4-fluoro-phenyl)-8-(2-cyclopropyl-1-hydroxy-ethyl)-10-methyl-1-oxo-1,3,4,7,8,9-hexahydropyrido[2,3]pyrazolo[2,4-b][1,4]diazepine-2-carboxamide] | 1 to 100
9 | C[C@@H]1Cc2nn3c(c2CN1C(=O)Nc1ccc(F)c(Cl)c1)C(=O)N(CC(C)(C)O)CCC3 [Compound 048] | 100 to 500
10 | C[C@@H]1Cc2nn3c(c2CN1C(=O)Nc1ccc(F)c(Cl)c1)C(=O)N(CCO)CCC3 [Compound 049, (3R)— N-(3-chloro-4-fluorophenyl)-10-(2-hydroxyethyl)-3-methyl-11-oxo-1,3,4,7,8,9,10,11-octahydro-2H-pyrido[4′,3′:3,4]pyrazolo[1,5-a][1,4]diazepine-2-carboxamide] | 1 to 100
11 | CNC1CN(C)C(=O)c2c3c(nn2C1)CCN(C(=O)Nc1ccc(F)c(Cl)c1)C3 (stereo not shown) [Compound 050, N-(3-chloro-4-fluorophenyl)-10-methyl-8-(methylamino)-11-oxo-1,3,4,7,8,9,10,11-octahydro-2H-pyrido[4′,3′:3,4]pyrazolo[1,5-a][1,4]diazepine-2-carboxamide] | 100 to 500
12 | O=C(Nc1ccc(F)c(Cl)c1)N1CCc2nn3c(c2C1)C(=O)N(CC(F)(F)F)CC(CO)C3 (stereo not shown) [Compound 051, N-(3-chloro-4-fluorophenyl)-8-(hydroxymethyl)-11-oxo-10-(2,2,2-trifluoroethyl)-1,3,4,7,8,9,10,11-octahydro-2H-pyrido[4′,3′: 3,4]pyrazolo[1,5-a][1,4]diazepine-2-carboxamide] | 1 to 100
13 | CCOC(=O)C1(C)CN(C)C(=O)c2c3c(nn2C1)CCN(C(=O)Nc1ccc(F)c(Cl)c1)C3 (stereo not shown) [Compound 052, ethyl 2-((3-chloro-4-fluorophenyl)carbamoyl)-8,10-dimethyl-11-oxo-1,3,4,7,8,9,10,11-octahydro-2H-pyrido[4′,3′:3,4]pyrazolo[1,5-a][1,4]diazepine-8-carboxylate] | 100 to 500
14 | CN1CC(C)(CO)Cn2nc3c(c2C1=O)CN(C(=O)Nc1ccc(F)c(Cl)c1)CC3 (stereo not shown) [Compound 053, N-(3-chloro-4-fluorophenyl)-8-(hydroxymethyl)-8,10-dimethyl-11-oxo-1,3,4,7,8,9,10,11-octahydro-2H-pyrido[4′,3′:3,4]pyrazolo[1,5-a][1,4]diazepine-2-carboxamide] | 1 to 100
15 | CN1CC(N2CCC(F)(F)C2)Cn2nc3c(c2C1=O)CN(C(=O)Nc1ccc(F)c(Cl)c1)CC3 (stereo not shown) [Compound 054, N-(3-chloro-4-fluorophenyl)-8-(3,3-difluoropyrrolidin-1-yl)-10-methyl-11-oxo-1,3,4,7,8,9,10,11-octahydro-2H-pyrido[4′,3′:3,4]pyrazolo[1,5-a][1,4]diazepine-2-carboxamide] | 100 to 500
16 | CN1CC(N2CCCCC2)Cn2nc3c(c2C1=O)CN(C(=O)Nc1ccc(F)c(Cl)c1)CC3 (stereo not shown) [Compound 055, N-(3-chloro-4-fluorophenyl)-10-methyl-11-oxo-8-(piperidin-1-yl)-1,3,4,7,8,9,10,11-octahydro-2H-pyrido[4′,3′:3,4]pyrazolo[1,5-a][1,4]diazepine-2-carboxamide] | 100 to 500
17 | CN1CC(N2CCC(F)(F)CC2)Cn2nc3c(c2C1=O)CN(C(=O)Nc1ccc(F)c(Cl)c1)CC3 (stereo not shown) [Compound 056, N-(3-chloro-4-fluorophenyl)-8-(4,4-difluoropiperidin-1-yl)-10-methyl-11-oxo-1,3,4,7,8,9,10,11-octahydro-2H-pyrido[4′,3′:3,4]pyrazolo[1,5-a][1,4]diazepine-2-carboxamide] | 100 to 500
18 | COC(=O)C1CCn2nc3c(c2C(=O)N1C)CN(C(=O)Nc1ccc(F)c(Cl)c1)CC3 (stereo not shown) [Compound 057, methyl 2-((3-chloro-4-fluorophenyl)carbamoyl)-10-methyl-11-oxo-1,3,4,7,8,9,10,11-octahydro-2H-pyrido[4′,3′:3,4]pyrazolo[1,5-a][1,4]diazepine-9-carboxylate] | 100 to 500
19 | CN1C(=O)c2c3c(nn2CCC1C(=O)O)CCN(C(=O)Nc1ccc(F)c(Cl)c1)C3 (stereo not shown) [Compound 058, 2-((3-chloro-4-fluorophenyl)carbamoyl)-10-methyl-11-oxo-1,3,4,7,8,9,10,11-octahydro-2H-pyrido[4′,3′:3,4]pyrazolo[1,5-a][1,4]diazepine-9-carboxylic acid] | > 1000
20 | CN(C)C(=O)C1CCn2nc3c(c2C(=O)N1C)CN(C(=O)Nc1ccc(F)c(Cl)c1)CC3 (stereo not shown) [Compound 059, N2-(3-chloro-4-fluorophenyl)-N9,N9,10-trimethyl-11-oxo-1,3,4,7,8,9,10,11-octahydro-2H-pyrido[4′,3′:3,4]pyrazolo[1,5-a][1,4]diazepine-2,9-dicarboxamide] | 100 to 500
21 | CN1C(=O)c2c3c(nn2CCC1(C)CO)CCN(C(=O)Nc1ccc(F)c(Cl)c1)C3 (stereo not shown) [Compound 061, N-(3-chloro-4-fluorophenyl)-9-(hydroxymethyl)-9,10-dimethyl-11-oxo-1,3,4,7,8,9,10,11-octahydro-2H-pyrido[4′,3′:3,4]pyrazolo[1,5-a][1,4]diazepine-2-carboxamide] | 1 to 100
22 | CN1C(=O)c2c3c(nn2CCC1(C)C(=O)O)CCN(C(=O)Nc1ccc(F)c(Cl)c1)C3 (stereo not shown) [Compound 062, 2-((3-chloro-4-fluorophenyl)carbamoyl)-9,10-dimethyl-11-oxo-1,3,4,7,8,9,10,11-octahydro-2H-pyrido[4′,3′:3,4]pyrazolo[1,5-a][1,4]diazepine-9-carboxylic acid] | > 1000
23 | CN1CC(CN2CCOCC2)Cn2nc3c(c2C1=O)CN(C(=O)Nc1ccc(F)c(Cl)c1)CC3 (stereo not shown) [Compound 063, N-(3-chloro-4-fluorophenyl)-10-methyl-8-(morpholinomethyl)-11-oxo-1,3,4,7,8,9,10,11-octahydro-2H-pyrido[4′,3′:3,4]pyrazolo[1,5-a][1,4]diazepine-2-carboxamide] | 1 to 100
24 | CN1CC(CN2CCCCC2)Cn2nc3c(c2C1=O)CN(C(=O)Nc1ccc(F)c(Cl)c1)CC3 (stereo not shown) [Compound 064, N-(3-chloro-4-fluorophenyl)-10-methyl-11-oxo-8-(piperidin-1-ylmethyl)-1,3,4,7,8,9,10,11-octahydro-2H-pyrido[4′,3′:3,4]pyrazolo[1,5-a][1,4]diazepine-2-carboxamide] | 100 to 500
25 | CN(C)CC1CN(C)C(=O)c2c3c(nn2C1)CCN(C(=O)Nc1ccc(F)c(Cl)c1)C3 (stereo not shown) [Compound 065] | 100 to 500
26 | CN1CC(CN2CCC(F)(F)C2)Cn2nc3c(c2C1=O)CN(C(=O)Nc1ccc(F)c(Cl)c1)CC3 (stereo not shown) [Compound 066, N-(3-chloro-4-fluorophenyl)-8-((3,3-difluoropyrrolidin-1-yl)methyl)-10-methyl-11-oxo-1,3,4,7,8,9,10,11-octahydro-2H-pyrido[4′,3′:3,4]pyrazolo[1,5-a][1,4]diazepine-2-carboxamide] | 1 to 100
27 | CN1CC(CN2CCC(F)(F)C2)Cn2nc3c(c2C1=O)CN(C(=O)Nc1ccc(F)c(C#N)c1)CC3 (stereo not shown) [Compound 067, N-(3-cyano-4-fluorophenyl)-8-((3,3-difluoropyrrolidin-1-yl)methyl)-10-methyl-11-oxo-1,3,4,7,8,9,10,11-octahydro-2H-pyrido[4′,3′:3,4]pyrazolo[1,5-a][1,4]diazepine-2-carboxamide] | 100 to 500
28 | CN1CC(CN2CCC(F)(F)C2)Cn2nc3c(c2C1=O)CN(C(=O)Nc1ccc(F)c(C(F)(F)F)c1)CC3 (stereo not shown) [Compound 068, 8-((3,3-difluoropyrrolidin-1-yl)methyl)-N-(4-fluoro-3-(trifluoromethyl)phenyl)-10-methyl-11-oxo-1,3,4,7,8,9,10,11-octahydro-2H-pyrido[4′,3′:3,4]pyrazolo[1,5-a][1,4] diazepine-2-carboxamide] | 100 to 500
